For one data set, the system named is H460 cells. The data set can be described thus: Concentration-dependent proliferation inhibition, MTS. The data set is classed as cell-based, human. The note with it: concentration gradient, MTS 48 h after transfection. As for the experimental part:
(§1) 1) H460 and A549 cells with a cell density of more than 90% in 10 cm^2 dishes were plated in 96-well plates according to the cell growth rate, and transfected after 12 h, and the groups (3 wells per group) were divided as follows: • BLANK group: 20 uL of opti-MEM • negative control group (NC group) and experimental group: • A. 10 uL of opti-MEM and 0.2 uL of iMax were mixed well for 5 min • B. 10 uL of opti-MEM and small RNA were mixed well (the concentration gradient of H460 cell experimental group was set as: 0.01 noml/L, 0.03 noml/L, 0.1 noml/L, 0.39 noml/L, 0.78 noml/L, 1.56 noml/L, 3.125 noml/L, 6.25 noml/L, 12.5 noml/L, 25 noml/L, 50 noml/L, 100 noml/L; the concentration gradient of A549 cell experimental group was set as: 0.01 noml/L, 0.03 noml/L, 0.1 noml/L, 0.3 noml/L, 1 noml/L, 3 noml/L, 10 noml/L, 30 noml/L, 100 noml/L, 300 noml/L; the final concentration of sRNA in NC group was 100 noml/L) • C. solution A and solution B were mixed well and let stand for 15 min, and then was added at a 20 ul/well system • Note: 100 uL of nuclease-free water was added to 2 nmol of small RNA dry powder for dissolution at a storage concentration of 20 umol/L
(§2) 2) Detection of cell viability: MTS detection was performed after 48 h.
(§3) Formulation of MTS detection solution was as follows: opti-MEM:MTS A solution:MTS B solution=100:20:1. After removing the supernatant, 100 uL of MTS detection solution was added to each well and incubated for 0.5-2 h. Absorbance values at wavelengths of 490 nm and 630 nm were measured in a microplate reader.
(§4) 1) H460 and A549 cells with a cell density of more than 90% in 10 cm^2 dishes were plated in 96-well plates according to the cell growth rate, and transfected after 12 h, and the groups (3 wells per group) were divided as follows: • blank control group: 20 uL of opti-MEM • negative control group (NC group) and experimental group: • A. 10 uL of opti-MEM and 2 uL of iMax were mixed well for 5 min • B. 10 uL of opti-MEM and small RNA were mixed well (the concentration gradient of H460 cell experimental group was set as: 0.01 noml/L, 0.03 nmol/L, 0.1 noml/L, 0.3 noml/L, 1 noml/L, 3 noml/L, 10 noml/L, 30 noml/L, 100 noml/L, 300 noml/L, 400 noml/L, 500 noml/L; the concentration gradient of A549 cell experimental group was set as: 0.01 noml/L, 0.03 nmol/L, 0.1 noml/L, 0.3 noml/L, 1 noml/L, 3 noml/L, 10 noml/L, 30 noml/L, 100 noml/L, 300 noml/L; the final concentration of sRNA in NC group was 100 noml/L) • C. solution A and solution B were mixed well and let stand for 15 min, and then was added to each well at a 20 uL system • positive group: the concentration of paclitaxel was adjusted to 100 nmol/L • Note: 100 uL of nuclease-free water was added to 2 nmol of small RNA dry powder for dissolution at a storage concentration of 20 umol/L
(§5) 1) H460 and A549 cells with a cell density of more than 90% in 10 cm^2 dishes were plated in 96-well plates according to the cell growth rate, and transfected after 12 h, and the groups (3 wells per group) were divided as follows: • blank control group: 20 uL of opti-MEM • negative control group (NC group) and experimental group: • A. 10 uL of opti-MEM and 0.2 uL of iMax were mixed well for 5 min • B. 10 uL of opti-MEM and small RNA were mixed well (the concentration gradient of H460 cell experimental group was set as: 0.1 noml/L, 0.3 noml/L, 1 noml/L, 3 noml/L, 10 noml/L, 30 noml/L, 100 noml/L, 300 noml/L; the concentration gradient of A549 cell experimental group was set as: 0.01 noml/L, 0.03 nmol/L, 0.1 noml/L, 0.3 noml/L, 1 noml/L, 3 noml/L, 10 noml/L, 30 noml/L, 100 noml/L, 300 noml/L; the final concentration of sRNA in NC group was 100 noml/L) • C. solution A and solution B were mixed well and let stand for 15 min, and then a 20 uL system was added at a 20 uL system • Note: 100 uL of nuclease-free water was added to 2 nmol of small RNA dry powder for dissolution at a storage concentration of 20 umol/L

Another data set has as its system A549 cells. Described as above. The data set is classed as cell-based, human. As to conditions: concentration gradient, MTS 48 h after transfection. As for the experimental part:
as §1, §2, §3, §4, §5

For the substance “HQi-sRNA-2: small RNA derived from Scutellaria baicalensis, sequence AUGGUUCGAUUCCGGAGAGGG (listed as RNA, chemistry not given here)”, the “proliferation-inhibiting function (cell activity, MTS)” value (from here on “proliferation-inhibiting function”) in the data set on H460 cells and with A549 cells was “concentration-dependent” in each case.
For “MDM-sRNA-163: small RNA derived from Maytenus hookeri, sequence UGACUCUAGUCCGACUUUGUGAAAUGACU (listed as RNA, chemistry not given here)”, the “proliferation-inhibiting function” value with H460 cells and in the data set on A549 cells was “concentration-dependent” in each case.
“MDM-sRNA-39: small RNA derived from Maytenus hookeri, sequence GGGAUUGUAGUUCAAUUGGUCAGAGCACC (listed as RNA, chemistry not given here)”: the “proliferation-inhibiting function” value with H460 cells and in the data set with A549 cells was “concentration-dependent” in each case.

The record behind these values is US20250302862A1, “SMALL RNA DRUG FOR INHIBITING ACTIVITY OF CANCER CELLS” (Institute of Basic Medical Sciences Chinese Academy of …, priority 2022, published 2025).
